According to US20260098039A1, “SOLID FORMS OF COMPOUND I OR SALTS THEREOF” (Jacobio Pharmaceuticals Co., Ltd., priority 2022, published 2026):
Converted amounts (≈) assume the structure as drawn. “Also recorded” adds a separate entry of the source.

Tests used:
PARP7 enzyme = biological target: T1, PARP7 enzyme (Homo sapiens, UniProt Q7Z3E1); test: PARP7 enzymatic HTRF assay; format: binding; settings: 6 nM PARP7 enzyme solution, RBN011147 probe, 25° C. 3 hrs
T1 sequence (Q7Z3E1 1-657): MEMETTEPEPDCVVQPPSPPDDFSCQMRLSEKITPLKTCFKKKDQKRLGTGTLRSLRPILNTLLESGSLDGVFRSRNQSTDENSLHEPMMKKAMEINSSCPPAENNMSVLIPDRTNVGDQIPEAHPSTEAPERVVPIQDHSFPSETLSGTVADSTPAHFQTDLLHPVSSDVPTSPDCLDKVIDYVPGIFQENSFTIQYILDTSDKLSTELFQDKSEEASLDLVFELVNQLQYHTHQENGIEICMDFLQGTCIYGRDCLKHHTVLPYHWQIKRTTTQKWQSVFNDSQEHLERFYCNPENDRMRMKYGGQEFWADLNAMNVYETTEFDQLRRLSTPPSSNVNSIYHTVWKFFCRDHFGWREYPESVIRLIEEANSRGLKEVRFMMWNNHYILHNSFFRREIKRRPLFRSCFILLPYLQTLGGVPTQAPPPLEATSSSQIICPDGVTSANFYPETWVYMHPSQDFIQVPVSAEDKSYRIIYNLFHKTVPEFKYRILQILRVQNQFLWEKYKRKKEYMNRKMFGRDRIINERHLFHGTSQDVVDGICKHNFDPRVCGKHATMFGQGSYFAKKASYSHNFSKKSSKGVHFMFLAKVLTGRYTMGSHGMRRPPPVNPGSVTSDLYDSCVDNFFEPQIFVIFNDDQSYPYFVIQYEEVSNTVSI
Protocol: The PARP7 enzyme inhibitory activity of each compound was tested using HTRF (homogeneous time resolved fluorescence) assay, and the half inhibitory concentration IC50 thereof was obtained.
(1) Each compound to be tested was prepared using gradient dilution method with DMSO and water to obtain a solution with the concentration of 50 nM, 10 nM, 2 nM, 0.4 nM, and 0.08 nM. The concentration of DMSO in the solution of each compound to be tested was 2%. […]
(5) The fluorescence signal was read on SPARK plate reader (Tecan), the wavelength of the excitation spectrum of the SPARK plate reader was 320 nm, and the wavelength of the emission spectrum of the SPARK plate reader was 620 nm and 665 nm. The ratio of […] was calculated for the solution in each well. The ratio was calculated according to the following formula: Ratio=absorbance at 665 nm/absorbance at 620 nm×10^4.
(6) The activation of the compounds to be tested was calculated according to the following formula: Activation (%)=100× (ratiocompound−rationnegative)/(ratiopositive−rationegative). […]

[1] = Solid state stability of crystalline form 1; format: physicochemical; settings: long-term, accelerated, high temperature and high humidity conditions, exposed, dark, 10 days
Protocol: The stability of crystalline Form 1 of Compound I was tested according to the following table 6.
The solid stability of crystalline form 1 of Compound I was exposure for 10 days in high humidity (25° C.±2° C., 90% RH±5% RH), high temperature (50° C.±5° C., <30% RH), long-term (25° C.±5° C., 60% RH±5%) and accelerated (40° C.±2° C., 75% RH±5%) conditions.

[2] = Equilibrium solubility of crystalline form 1; format: physicochemical
Protocol: The equilibrium solubility of crystalline form 1 of Compound I was tested according to the following table 7.

Structure (SMILES) | IC50 (PARP7 enzyme) [µM] | Polymorph (via XRPD) in solid state stability [1] | solubility thermodynamic ([2]; 37 °C, thermodynamic from solid, FeSSIF, via HPLC) [µg/mL] | Polymorph (via XRPD) after equilibrium solubility test ([2]; after 24 h in water (25° C.), SGF (37° C.), FaSSIF (37° C.), FeSSIF (37° C.)) | time to reach basic saturation ([2]; water (25° C.), SGF (37° C.), FaSSIF (37° C.), FeSSIF (37° C.)) [h]
Cc1c2n(c3ncc(C(F)(F)F)cc13)CCN(C(=O)CCOC[C@H](C)Oc1cn[nH]c(=O)c1C(F)(F)F)C2 [Compound I, (S)-5-((1-(3-(5-methyl-3-(trifluoromethyl)-8,9-dihydropyrido[3′,2′:4,5]pyrrolo[1,2-a]pyrazin-7(6H)-yl)-3-oxopropoxy)propan-2-yl)oxy)-4-(trifluoromethyl)pyridazin-3(2H)-one] | 0.00158 | – | – | – | –
Cc1c2n(c3ncc(C(F)(F)F)cc13)CCN(C(=O)CCOC[C@H](C)Oc1cn[nH]c(=O)c1C(F)(F)F)C2 [crystalline form 1 of Compound I, (S)-5-((1-(3-(5-methyl-3-(trifluoromethyl)-8,9-dihydropyrido[3′,2′:4,5]pyrrolo[1,2-a]pyrazin-7(6H)-yl)-3-oxopropoxy)propan-2-yl)oxy)-4-(trifluoromethyl)pyridazin-3(2H)-one] | – | remain unchanged; also recorded: The polymorph remained unchanged under above 4 conditions for 10 | ~100 (≈ 183 µM) | remains unchanged | 4
